Test results as given in patent US12358897B2, “Compounds and method of treating COVID-19” (Pfizer Inc., priority 2020, dated 2025).

Molecular target: T1, full-length SARS-CoV-2 3CL protease (Severe acute respiratory syndrome coronavirus 2, UniProt P0DTD1)
T1 construct: measures the activity of full-length SARS-CoV-2 3CL protease
Assay: SARS-CoV-2 Coronavirus 3C Protease FRET Assay (Dabcyl-KTSAVLQ-SGFRKME-Edans substrate)
Type: biochemical
Settings: 15 nM enzyme, 25 μM peptide substrate, 60 minutes at 23° C.; Morrison equation fit; read-out: Geometric Mean Ki

Structure (SMILES) | Ki [nM]
CCC(=O)OCC(=O)[C@H](C[C@@H]1CCNC1=O)NC(=O)[C@H](CC(C)C)NC(=O)c1cc2c(OC)cccc2[nH]1 [Example 9, (3S)-3-({N-[(4-methoxy-1H-indol-2-yl)carbonyl]-L-leucyl}amino)-2-oxo-4-[(3S)-2-oxopyrrolidin-3-yl]butyl propanoate] | 33.6
COc1cccc2[nH]c(C(=O)N[C@@H](CC(C)C)C(=O)N[C@@H](C[C@@H]3CCNC3=O)C(=O)COC(=O)c3ccncc3)cc12 [Example 34, (3S)-3-({N-[(4-methoxy-1H-indol-2-yl)carbonyl]-L-leucyl}amino)-2-oxo-4-[(3S)-2-oxopyrrolidin-3-yl]butyl pyridine-4-carboxylate] | 0.598
COc1cccc2[nH]c(C(=O)N[C@@H](CC(C)C)C(=O)N[C@@H](C[C@@H]3CCNC3=O)C(=O)COC(=O)c3c(C)ccnc3CN(C)C)cc12 [Example 59, (3S)-3-({N-[(4-methoxy-1H-indol-2-yl)carbonyl]-L-leucyl}amino)-2-oxo-4-[(3S)-2-oxopyrrolidin-3-yl]butyl 2-[(dimethylamino)methyl]-4-methylpyridine-3-carboxylate] | 13.6
COc1cccc2[nH]c(C(=O)N[C@@H](CC(C)C)C(=O)N[C@@H](C[C@@H]3CCNC3=O)C(=O)COC(=O)[C@H]3CCCCN3C)cc12 [Example 37, (3S)-3-({N-[(4-methoxy-1H-indol-2-yl)carbonyl]-L-leucyl}amino)-2-oxo-4-[(3S)-2-oxopyrrolidin-3-yl]butyl (2R)-1-methylpiperidine-2-carboxylate] | 1.42
COc1cccc(C)c1C(=O)OCC(=O)[C@H](C[C@@H]1CCNC1=O)NC(=O)[C@H](CC(C)C)NC(=O)c1cc2c(OC)cccc2[nH]1 [Example 66, (3S)-3-({N-[(4-methoxy-1H-indol-2-yl)carbonyl]-L-leucyl}amino)-2-oxo-4-[(3S)-2-oxopyrrolidin-3-yl]butyl 2-methoxy-6-methylbenzoate] | 39.6
COc1cccc2[nH]c(C(=O)N[C@@H](CC(C)C)C(=O)N[C@@H](C[C@@H]3CCNC3=O)C(=O)COC(=O)CN(C)C)cc12 [Example 4, (3S)-3-({N-[(4-methoxy-1H-indol-2-yl)carbonyl]-L-leucyl}amino)-2-oxo-4-[(3S)-2-oxopyrrolidin-3-yl]butyl N,N-dimethylglycinate] | 2.98
COc1cccc2[nH]c(C(=O)N[C@@H](CC(C)C)C(=O)N[C@@H](C[C@@H]3CCNC3=O)C(=O)COC(=O)[C@@H]3CCCN3C)cc12 [Example 28, (3S)-3-({N-[(4-methoxy-1H-indol-2-yl)carbonyl]-L-leucyl}amino)-2-oxo-4-[(3S)-2-oxopyrrolidin-3-yl]butyl 1-methyl-L-prolinate] | 2.47
CC[C@H](C)C(=O)OCC(=O)[C@H](C[C@@H]1CCNC1=O)NC(=O)[C@H](CC(C)C)NC(=O)c1cc2c(OC)cccc2[nH]1 [Example 18, (3S)-3-({N-[(4-methoxy-1H-indol-2-yl)carbonyl]-L-leucyl}amino)-2-oxo-4-[(3S)-2-oxopyrrolidin-3-yl]butyl (2S)-2-methylbutanoate] | 65.7
COc1cccc2[nH]c(C(=O)N[C@@H](CC(C)C)C(=O)N[C@@H](C[C@@H]3CCNC3=O)C(=O)COC(=O)c3cncn3C)cc12 [Example 45, (3S)-3-({N-[(4-methoxy-1H-indol-2-yl)carbonyl]-L-leucyl}amino)-2-oxo-4-[(3S)-2-oxopyrrolidin-3-yl]butyl 1-methyl-1H-imidazole-5-carboxylate] | 40.7
CCOc1nccc(C)c1C(=O)OCC(=O)[C@H](C[C@@H]1CCNC1=O)NC(=O)[C@H](CC(C)C)NC(=O)c1cc2c(OC)cccc2[nH]1 [Example 64, (3S)-3-({N-[(4-methoxy-1H-indol-2-yl)carbonyl]-L-leucyl}amino)-2-oxo-4-[(3S)-2-oxopyrrolidin-3-yl]butyl 2-ethoxy-4-methylpyridine-3-carboxylate] | 34.9
COc1cccc2[nH]c(C(=O)N[C@@H](CC(C)C)C(=O)N[C@@H](C[C@@H]3CCNC3=O)C(=O)COC(=O)c3ccn(C)n3)cc12 [Example 43, (3S)-3-({N-[(4-methoxy-1H-indol-2-yl)carbonyl]-L-leucyl}amino)-2-oxo-4-[(3S)-2-oxopyrrolidin-3-yl]butyl 1-methyl-1H-pyrazole-3-carboxylate] | 118
COc1cccc2[nH]c(C(=O)N[C@@H](CC(C)C)C(=O)N[C@@H](C[C@@H]3CCNC3=O)C(=O)COC(=O)c3c(C)cncc3C)cc12 [Example 68, (3S)-3-({N-[(4-methoxy-1H-indol-2-yl)carbonyl]-L-leucyl}amino)-2-oxo-4-[(3S)-2-oxopyrrolidin-3-yl]butyl 3,5-di methylpyridine-4-carboxylate] | 7.56
COc1cccc2[nH]c(C(=O)N[C@@H](CC(C)C)C(=O)N[C@@H](C[C@@H]3CCNC3=O)C(=O)COC(=O)c3cccnc3C)cc12 [Example 24, (3S)-3-({N-[(4-methoxy-1H-indol-2-yl)carbonyl]-L-leucyl}amino)-2-oxo-4-[(3S)-2-oxopyrrolidin-3-yl]butyl 2-methylpyridine-3-carboxylate] | 14.2
COc1cccc2[nH]c(C(=O)N[C@@H](CC(C)C)C(=O)N[C@@H](C[C@@H]3CCNC3=O)C(=O)COC(=O)c3c(C)ccnc3C)cc12 [Example 62, (3S)-3-({N-[(4-methoxy-1H-indol-2-yl)carbonyl]-L-leucyl}amino)-2-oxo-4-[(3S)-2-oxopyrrolidin-3-yl]butyl 2,4-dimethylpyridine-3-carboxylate] | 4.29
COc1cccc2[nH]c(C(=O)N[C@@H](CC(C)C)C(=O)N[C@@H](C[C@@H]3CCNC3=O)C(=O)COC(=O)c3c(C)nn(C)c3C)cc12 [Example 48, (3S)-3-({N-[(4-methoxy-1H-indol-2-yl)carbonyl]-L-leucyl}amino)-2-oxo-4-[(3S)-2-oxopyrrolidin-3-yl]butyl 1,3,5-trimethyl-1H-pyrazole-4-carboxylate] | 255
COc1cccc2[nH]c(C(=O)N[C@@H](CC(C)C)C(=O)N[C@@H](C[C@@H]3CCNC3=O)C(=O)COC(=O)c3cn(C)nc3C)cc12 [Example 39, (3S)-3-({N-[(4-methoxy-1H-indol-2-yl)carbonyl]-L-leucyl}amino)-2-oxo-4-[(3S)-2-oxopyrrolidin-3-yl]butyl 1,3-dimethyl-1H-pyrazole-4-carboxylate] | 91.9
COc1cccc2[nH]c(C(=O)N[C@@H](CC(C)C)C(=O)N[C@@H](C[C@@H]3CCNC3=O)C(=O)COC(=O)C3(C)CC3)cc12 [Example 21, (3S)-3-({N-[(4-methoxy-1H-indol-2-yl)carbonyl]-L-leucyl}amino)-2-oxo-4-[(3S)-2-oxopyrrolidin-3-yl]butyl 1-methylcyclopropanecarboxylate] | 104
COc1cccc2[nH]c(C(=O)N[C@@H](CC(C)C)C(=O)N[C@@H](C[C@@H]3CCNC3=O)C(=O)COC(=O)c3ccccc3C)cc12 [Example 11, (3S)-3-({N-[(4-methoxy-1H-indol-2-yl)carbonyl]-L-leucyl}amino)-2-oxo-4-[(3S)-2-oxopyrrolidin-3-yl]butyl 2-methylbenzoate] | 71.4
COc1cccc2[nH]c(C(=O)N[C@@H](CC(C)C)C(=O)N[C@@H](C[C@@H]3CCNC3=O)C(=O)COC(=O)c3c(C)cc(F)cc3C)cc12 [Example 74, (3S)-3-({N-[(4-methoxy-1H-indol-2-yl)carbonyl]-L-leucyl}amino)-2-oxo-4-[(3S)-2-oxopyrrolidin-3-yl]butyl 4-fluoro-2,6-dimethylbenzoate] | 44.3
COc1ccccc1C(=O)OCC(=O)[C@H](C[C@@H]1CCNC1=O)NC(=O)[C@H](CC(C)C)NC(=O)c1cc2c(OC)cccc2[nH]1 [Example 15, (3S)-3-({N-[(4-methoxy-1H-indol-2-yl)carbonyl]-L-leucyl}amino)-2-oxo-4-[(3S)-2-oxopyrrolidin-3-yl]butyl 2-methoxybenzoate] | 147
CC[C@@H](C)C(=O)OCC(=O)[C@H](C[C@@H]1CCNC1=O)NC(=O)[C@H](CC(C)C)NC(=O)c1cc2c(OC)cccc2[nH]1 [Example 19, (3S)-3-({N-[(4-methoxy-1H-indol-2-yl)carbonyl]-L-leucyl}amino)-2-oxo-4-[(3S)-2-oxopyrrolidin-3-yl]butyl (2R)-2-methylbutanoate] | 64.8
COc1cccc2[nH]c(C(=O)N[C@@H](CC(C)C)C(=O)N[C@@H](C[C@@H]3CCNC3=O)C(=O)COC(=O)C3CCN(C)CC3)cc12 [Example 30, (3S)-3-({N-[(4-methoxy-1H-indol-2-yl)carbonyl]-L-leucyl}amino)-2-oxo-4-[(3S)-2-oxopyrrolidin-3-yl]butyl 1-methylpiperidine-4-carboxylate] | 6.13
COc1cccc2[nH]c(C(=O)N[C@@H](CC(C)C)C(=O)N[C@@H](C[C@@H]3CCNC3=O)C(=O)COC(=O)c3cccnc3)cc12 [Example 29, (3S)-3-({N-[(4-methoxy-1H-indol-2-yl)carbonyl]-L-leucyl}amino)-2-oxo-4-[(3S)-2-oxopyrrolidin-3-yl]butyl pyridine-3-carboxylate] | 9.57
COc1cccc2[nH]c(C(=O)N[C@@H](CC(C)C)C(=O)N[C@@H](C[C@@H]3CCNC3=O)C(=O)COC(=O)c3ccccc3Cl)cc12 [Example 16, (3S)-3-({N-[(4-methoxy-1H-indol-2-yl)carbonyl]-L-leucyl}amino)-2-oxo-4-[(3S)-2-oxopyrrolidin-3-yl]butyl 2-chlorobenzoate] | 10.5
COc1cccc2[nH]c(C(=O)N[C@@H](CC(C)C)C(=O)N[C@@H](C[C@@H]3CCNC3=O)C(=O)COC(=O)c3ccnn3C)cc12 [Example 42, (3S)-3-({N-[(4-methoxy-1H-indol-2-yl)carbonyl]-L-leucyl}amino)-2-oxo-4-[(3S)-2-oxopyrrolidin-3-yl]butyl 1-methyl-1H-pyrazole-5-carboxylate] | 5.25
COc1cccc2[nH]c(C(=O)N[C@@H](CC(C)C)C(=O)N[C@@H](C[C@@H]3CCNC3=O)C(=O)COC(=O)c3cnccc3C)cc12 [Example 23, (3S)-3-({N-[(4-methoxy-1H-indol-2-yl)carbonyl]-L-leucyl}amino)-2-oxo-4-[(3S)-2-oxopyrrolidin-3-yl]butyl 4-methylpyridine-3-carboxylate] | 21.2
